The molecules below were run against T1, DNA repair protein RAD51 homolog 1 (Homo sapiens, UniProt Q06609) (assay: concentration-dependent blocking of RAD51 activity – biochemical, homologous recombination, fluorescence, dose response (AID 1435)). Details: not given.
T1 sequence (Q06609 whole entry): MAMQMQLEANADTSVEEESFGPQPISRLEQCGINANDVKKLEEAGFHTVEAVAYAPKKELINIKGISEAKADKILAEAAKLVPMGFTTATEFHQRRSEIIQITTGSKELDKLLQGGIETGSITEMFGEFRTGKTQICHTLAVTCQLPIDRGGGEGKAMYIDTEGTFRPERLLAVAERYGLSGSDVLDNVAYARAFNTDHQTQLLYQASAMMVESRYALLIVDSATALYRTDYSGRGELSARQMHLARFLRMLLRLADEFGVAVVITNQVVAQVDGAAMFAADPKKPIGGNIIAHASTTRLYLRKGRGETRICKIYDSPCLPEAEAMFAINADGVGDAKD

Q: Which IC50 does the source give for `CCOC(=O)C1CCN(C(=O)c2ccco2)CC1` [1-(2-furoyl)isonipecotic acid ethyl ester] here?
A: > 85 µM

Q: With `OC(COc1ccc2c(c1)CCC2)Cn1cnc2ccccc21` (configuration not stated) [SMR000082144] as the molecule, how does the IC50 read?
A: > 85 µM

Q: How did the IC50 turn out when `COc1cc(CN2CCN(c3ccc(C)cc3)CC2)cc([N+](=O)[O-])c1O` [2-methoxy-4-[[4-(4-methylphenyl)-1-piperazinyl]methyl]-6-nitrophenol] was run?
A: > 85 µM

Q: With `O=C(O)/C=C/c1cn(Cc2ccccc2)nc1-c1ccccc1` [MLS000567315] as the molecule, how does the IC50 read?
A: > 85 µM

Q: Which IC50 does the source give for `O=c1[nH]c(N2CCN(Cc3ccc4c(c3)OCO4)CC2)nc2c1CCC2` [MLS000100276] here?
A: > 85 µM

Q: How did the IC50 turn out when `CN1CCN(C2=C(Cl)C(=O)N(Cc3ccccc3)C2=O)CC1` [MLS000030834] was run?
A: > 85 µM

Q: Which IC50 does the source give for `FC(F)(F)c1nnc2ccc(N3CCCC3)nn12` [6-(1-pyrrolidinyl)-3-(trifluoromethyl)[1,2,4]triazolo[4,3-b]pyridazine] here?
A: > 85 µM

Q: Which IC50 does the source give for `COc1cc(C)c2c(c1C=O)Oc1c(c(C)c(O)c3c1C(O)OC3=O)OC2=O` (configuration not stated) [1,4-Dihydroxy-10-methoxy-5,8-dimethyl-3,7-dioxo-1,3-dihydro-7H-benzo[e]furo[3',4':3,4]benzo[b][1,4]dioxepine-11-carbaldehyde] here?
A: 8.74 µM

Q: With `COC(=O)C(C=Nc1cccc(Cl)c1C)c1ncc(C(F)(F)F)cc1Cl` (configuration not stated) [methyl (Z)-3-(3-chloro-2-methylanilino)-2-[3-chloro-5-(trifluoromethyl)-2-pyridinyl]-2-propenoate] as the molecule, how does the IC50 read?
A: > 85 µM

Q: With `CCOC(=O)C1(C(=O)OCC)CC1c1ccccc1` (configuration not stated) [2-phenylcyclopropane-1,1-dicarboxylic acid diethyl ester] as the molecule, how does the IC50 read?
A: > 85 µM

Q: `CCOC(=O)Cn1c(=O)c2c(nc(N3CCCCC3)n2Cc2ccccc2)n(C)c1=O` [2-(7-benzyl-2,6-diketo-3-methyl-8-piperidino-purin-1-yl)acetic acid ethyl ester] was tested. Which IC50 did it give?
A: > 85 µM

Q: Which IC50 does the source give for `O=C(CN(Cc1ccco1)C(=O)CCC(=O)Nc1nccs1)NCc1ccccc1` [SMR000117995] here?
A: > 85 µM

Same assay, conditions: inactive by the depositor's call

Q: `O=P(OCC(F)(F)C(F)F)(N1CCOCC1)N1CCOCC1` [4-[morpholin-4-yl(2,2,3,3-tetrafluoropropoxy)phosphoryl]morpholine] was tested. Which IC50 did it give?
A: 42.5 µM

Q: For `COC(=O)c1cc2n(n1)CCN(Cc1ccc(F)cc1)C2=O` [5-(4-fluorobenzyl)-4-keto-6,7-dihydropyrazolo[1,5-a]pyrazine-2-carboxylic acid methyl ester], which IC50 is on record?
A: 42.5 µM

Q: `CC1(C)CC(=O)C=C(NNC(=O)c2ccccc2O)C1` [SMR000185773] was tested. Which IC50 did it give?
A: 42.5 µM

Q: How did the IC50 turn out when `Cc1ccc(/C(C#N)=C\c2cn(C)c3ccccc23)cc1` [MLS000051428] was run?
A: 42.5 µM

Q: Which IC50 does the source give for `CCOC(=O)Cn1c(=O)c2c(nc(N3CCCCC3)n2Cc2ccccc2)n(C)c1=O` [2-(7-benzyl-2,6-diketo-3-methyl-8-piperidino-purin-1-yl)acetic acid ethyl ester] here?
A: 1.4 µM

Reference: BindingDB's records for doi:10.7270/Q2BV7F1T (Pcmd, 2008)
